Literature values in patent publication US5420016A, “Test device and kit for detecting helicobacter pylori” (Serim Research Corporation, priority 1994, dated 1995).

Target: Urease from H. pylori (Helicobacter pylori, UniProt P69996)
Details: read-out: Michaelis constant (urea); substrate urea; from Dunn, et al., J. Biol. Chem., 265:9464-9 (1990)

Urease from H. pylori, sequence (P69996 whole entry): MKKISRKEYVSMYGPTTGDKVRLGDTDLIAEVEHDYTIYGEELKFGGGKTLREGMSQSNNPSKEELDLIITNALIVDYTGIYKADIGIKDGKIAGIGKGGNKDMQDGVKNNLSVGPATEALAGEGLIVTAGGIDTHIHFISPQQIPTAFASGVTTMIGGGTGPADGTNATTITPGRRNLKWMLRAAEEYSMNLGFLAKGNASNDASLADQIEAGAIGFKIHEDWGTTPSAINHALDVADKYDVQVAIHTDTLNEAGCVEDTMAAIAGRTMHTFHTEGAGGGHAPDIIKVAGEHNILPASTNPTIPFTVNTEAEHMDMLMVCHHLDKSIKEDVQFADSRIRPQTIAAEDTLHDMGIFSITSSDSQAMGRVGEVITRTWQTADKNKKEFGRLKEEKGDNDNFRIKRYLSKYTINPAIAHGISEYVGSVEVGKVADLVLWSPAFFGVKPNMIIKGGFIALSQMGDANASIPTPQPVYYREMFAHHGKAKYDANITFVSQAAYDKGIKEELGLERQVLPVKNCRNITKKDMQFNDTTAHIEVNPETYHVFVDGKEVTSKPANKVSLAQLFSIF
Urease from H. pylori, sequence (P14916 whole entry, further chain): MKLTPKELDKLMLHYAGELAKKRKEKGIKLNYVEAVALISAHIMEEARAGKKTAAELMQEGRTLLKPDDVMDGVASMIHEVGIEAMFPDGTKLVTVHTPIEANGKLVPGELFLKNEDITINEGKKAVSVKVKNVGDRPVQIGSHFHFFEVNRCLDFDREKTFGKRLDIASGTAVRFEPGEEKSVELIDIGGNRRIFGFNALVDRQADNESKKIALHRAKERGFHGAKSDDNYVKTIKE

NC(N)=O [urea]
Km: 300 µM
